# Experimental data: patent US7196063B1, “Peptides and pharmaceutical compositions comprising same” (NST NeuroSurvival Technologies Ltd., priority 1999, dated 2007)
# Where two headings read alike, the source gives them in different places.
# Assays:
# apoptotic HeLa cells = conditions: 500 nM, FACS
# Protocol: Detection of binding to apoptotic HeLa cells was performed according to the following procedure: Cells were plated on tissue culture plates at a density of 5×10^6 cells/10 cm dish, and grown in their normal medium at 37° C. for 18 hr. The medium was replaced with a medium containing 2% FCS and 500 μM of dopamine. Eighteen hours later, floating cells that were identified as advanced apoptotic cells were collected and transferred to a 50 ml tube. To evaluate the level of apoptosis in the cultures, aliquots of 10^5 cells from the cultures were plated on 48 wells plate and stained with Hoechst 33342 dye (Molecular Probes) at a concentration of 1 mg/ml for 20 min (as described above). Non-treated cells served as control. For collecting the non-treated cells, the medium of the culture was aspirated and discarded, the cells were rinsed with growing medium and 2 ml of medium were added to the culture dish. The cells were detached from the culture dish using a cell scraper and separated to single cells by passage through a syringe with a 18G needle.
# The reactions were incubated at room temperature for 40 minutes and then 400 μl of TBS was added and cells were collected by centrifugation at 3000×g for 3 minutes. Cells were washed in 1 ml of TBS and centrifuged as before and detecting of the bound compound was performed using 100 μl of TBS containing streptavidin conjugated to fluorescein (FITC) (016-090-084 from Jackson ImmunoResearch lab. Inc.). Incubation was for 15 minutes at room temperature in the dark. Thereafter, 400 μl of TBS was added and cells were centrifuged and washed again with 1 ml of TBS as before, re-suspended in 400 μl of TBS and then taken for FACS analysis. The FACS analysis was performed on Beckton-Dickinson cell sorter, using lysis II software. Excitation was at 488 nm and emission for FITC detection was at 535 nm and for PI detection at 585 nm.
# HUVEC cells = experiment: Binding to endothelial HUVEC cells by FACS analysis; type: cell-based, Human
# Protocol: Binding detection was done using flow cytometric analysis to populations of HUVEC cells.
# HUVEC (CC-2517, obtained from Clonetics, Walkersville, Md.) were grown on tissue culture flasks in Endothelial cell medium (EGM-2 Bulletkit, CC 3162, Clonetics). Mid-confluent cultures were harvested using Trypsine/EDTA solution (CC-5012, Clonetics). The cells were rinsed twice with TBS containing 2% BSA and kept on ice. Samples of 10^6 cells were tested for binding.
# Cells were washed in 1 ml of TBS-BSA and centrifuged as before and then suspended in 100 μl of TBS-BSA containing streptavidin conjugated to fluorescein (FITC) for detection of the bound biotinylated compound. […] Thereafter, 400 μl of TBS-BSA were added and cells were entrifuged and re-suspended in 400 μl of TBS and taken for FACS analysis.
substance,measurement,setting,value
Myristate-KVSFFCKNKEKKC-K (SEQ ID NO:1) (biotin) [NST513],binding to apoptotic versus control HeLa cells,apoptotic HeLa cells,strong labeling of apoptotic versus control cells
same,"increase in the percentage of apoptotic cells labeled, as compared to non-apoptotic cells",apoptotic HeLa cells; PI and FITC,5.5 fold
same,binding to apoptotic versus control HeLa cells,apoptotic HeLa cells; listed as NST313,specifically binds to apoptotic cells
same,binding to HUVEC cells,HUVEC cells; 500 nM,strong binding
same,cells FITC positive,HUVEC cells; 500 nM,About 70%
same,fraction of HUVEC cells labeled,HUVEC cells; 250 μM,about 50%
